Each compound was assayed on rat liver microsomes (assay: Metabolic stability in rat liver microsomes (RLM)). Conditions: RLM assay; additional deuteration in the phenyl ring.

SMILES	half-life compared to DMT-d10
[2H]c1[nH]c2c([2H])c([2H])c([2H])c([2H])c2c1C([2H])([2H])C([2H])([2H])N(C([2H])([2H])[2H])C([2H])([2H])[2H] [DMT-dis]	no improvement in half-life

Same assay, conditions: RLM assay; last time point 120 min

SMILES	RLM (metabolized or not)
C=CCN(CC=C)CCc1c[nH]c2ccccc12	R
C=CCNCCc1c[nH]c2ccccc12	R
CCN(CC)CCc1c[nH]c2ccccc12	R
CCN(CC)CCc1c[nH]c2ccc(OC)cc12	R
CCN(CC)CCc1c[nH]c2ccc(O)cc12	R
CCN(CC)CCc1c[nH]c2cccc(OC)c12	R
[2H]c1ccc2[nH]c([2H])c(CCN([2H])CC)c2c1O	R
CCNCCc1c[nH]c2cccc(O)c12	R
CC(C)NCCc1c[nH]c2ccccc12	R
CC(C)NCCc1c[nH]c2cccc(O)c12	R
CC(C)N(CCc1c[nH]c2cccc(O)c12)C(C)C	R

Same assay, conditions: RLM assay; values in square brackets are within 10% difference (assay's accuracy), no deuteration effect

SMILES	RLM, % (half-life as % vs. the related nondeuterated compound)
[2H]C([2H])([2H])C([2H])([2H])NC([2H])([2H])C([2H])([2H])c1c[nH]c2cccc(O)c12	[93] %
[2H]C([2H])(c1c[nH]c2ccc(OC)cc12)C([2H])([2H])N(CC)CC	[95] %
[2H]C([2H])(NCC)C([2H])([2H])c1c[nH]c2cccc(O)c12	[94] %
[2H]C([2H])(c1c[nH]c2cccc(OC)c12)C([2H])([2H])N(C)C	190%
[2H]C([2H])(NC)C([2H])([2H])c1c[nH]c2cccc(O)c12	160%
[2H]C([2H])(c1c[nH]c2cccc(O)c12)C([2H])([2H])N(C(C)C)C(C)C	[97] %

— patent publication US20230066286A1, “DEUTERATED TRYPTAMINE DERIVATIVES AND METHODS OF USE” (priority 2020, published 2023)
